Laboratory results as given in patent publication US20240398824A1, “Inhibition Of Rip Kinases For Treating Neurodegenerative Disorders” (The Johns Hopkins University, priority 2018, published 2024).

Key:
primary cortical neurons = test: Neuronal toxicity of astrocyte conditioned medium (AlamarBlue and LDH assays); format: cell-based, mouse; conditions: cortical neurons 24 h with ACM, in words
Method: Primary neuron, microglia and astrocyte cell cultures, and α-synuclein PFE's treatment: NOD2 or RIPK2 knockout mice was obtained from Jackson Laboratories (Bar Harbor, ME, USA). Primary cortical neurons were prepared from embryonic day 15.5 pups and cultured in Neurobasal medium (Gibco) supplemented with B-27, 0.5 mM L-glutamine, penicillin and streptomycin (Invitrogen, Grand Island, NY, USA) on tissue-culture plates coated with poly-L-lysine. The neurons were maintained by changing the medium every 3-4 days. Primary microglial and astrocyte cultures were performed as described previously (PMID: 26157004). Whole brains from mouse pups at postnatal day 1 (P1) were obtained. […] The total protein concentration was determined using Pierce BCA protein assay kit (Thermo Scientific), and 15 or 50 μg ml^-1 of total protein was added to mouse primary neurons for the neuronal cell death assay. […] Cell viability was determined by two methods: The AlamarBlue (Invitrogen) and LDH assay (Sigma). Cell death was assessed through AlamarBlue assay, according to the manufacturer's protocol. LDH activity in culture medium, representing relative cell viability and membrane integrity, was measured using the LDH assay kit spectrophotometrically, following the manufacturer's instructions. […]

primary astrocytes = test: A1 astrocyte conversion in primary astrocytes treated with PFF-activated microglia conditioned medium (MCM); format: cell-based, mouse; conditions: astrocytes 24 h with MCM from inhibitor-treated PFF-activated microglia; in words
Method: Primary neuron, microglia and astrocyte cell cultures, and α-synuclein PFE's treatment: NOD2 or RIPK2 knockout mice was obtained from Jackson Laboratories (Bar Harbor, ME, USA). Primary cortical neurons were prepared from embryonic day 15.5 pups and cultured in Neurobasal medium (Gibco) supplemented with B-27, 0.5 mM L-glutamine, penicillin and streptomycin (Invitrogen, Grand Island, NY, USA) on tissue-culture plates coated with poly-L-lysine. The neurons were maintained by changing the medium every 3-4 days. Primary microglial and astrocyte cultures were performed as described previously (PMID: 26157004). Whole brains from mouse pups at postnatal day 1 (P1) were obtained. […] The total protein concentration was determined using Pierce BCA protein assay kit (Thermo Scientific), and 15 or 50 μg ml^-1 of total protein was added to mouse primary neurons for the neuronal cell death assay. […] RNA concentration was measured spectrophotometrically using NanoDrop 2000 ([…]). […] The expression levels of targeted genes were normalized to the expression of β-actin and calculated based on the comparative cycle threshold Ct method (2-ΔΔCt).

Structure (SMILES) | neuronal cell death induced by neurotoxic astrocytes (primary cortical neurons) | A1 astrocyte conversion (primary astrocytes)
COc1cc2ncnc(Nc3ccc(F)c(Cl)c3)c2cc1OCCCN1CCOCC1 [Gefitinib] | significantly prevented neuronal cell death | significantly suppress
CC(C)(C)S(=O)(=O)c1ccc2nccc(Nc3n[nH]c4ccc(F)cc34)c2c1 [GSK583, 6-(tert-butylsulfonyl)-N-(5-fluoro-1H-indazol-3-yl) quinolin-4-amine] | significantly prevented neuronal cell death | significantly suppress
